Patent US20150119394A1, “Insulin-Like Growth Factor-1 Receptor Inhibitors” (Merck Sharp & Dohme Corp., priority 2012, published 2015)
pIC50: −log10 of the molar value.

Biological target: T1, intracellular kinase domain of human IGF-1R (GST fusion protein) (Homo sapiens, UniProt P08069)
T1 construct: IGFRK and IRK enzyme used for the assay was intracellular kinase domain of human IGF-1R; GST; made in house
Assay: In vitro IGF-1R kinase assay (HTRF)
Type: biochemical
Details: ATP 20 μM, IGFRK 0.25 nM
Protocol: The in vitro kinase assays using IGF-1R and IR kinase GST fusion proteins were conducted using a homogeneous time-resolved fluorescence (HTRF) format. Kinase reactions were carried out in a 384-well plate format in a final volume of 20 μL. The standard enzyme reaction buffer consisted of 50 mM Tris HCL (pH: 7.4), 1 mM EGTA, 10 mM MgCl2, 2 mM DTT, 0.01% Tween-20, IGF-1R/IR kinase enzyme, poly GT peptide substrate (Perkin Elmer [Ulight Glu-Tyr (4:1)]n) and ATP [concentration equivalent to Kmapp] […] Briefly, 2.5 μL enzyme and 2.5 μL inhibitor was preincubated for 10 minutes at 23° C. followed by the addition of 2.5 μL of poly GT substrate (final concentration of 50 nM). Reaction was initiated with the addition of 2.5 μL of ATP (final concentration of 20 μM for IGF-1R assay and 10 μM for IR assay). After 1 hour incubation at 23° C., the kinase reaction was stopped with the addition of 5 μL EDTA (final concentration of 10 mM in 20 μL). Europium cryptate—labeled antiphosphotyrosine antibody PY20 (5 μL) was added (final concentration of 2 nM) and the mixture was allowed to equilibrate for 1 hour at 23° C. followed by reading the plate in an Envision plate reader.
The intensity of light emission at 665 nm was directly proportional to the level of substrate phosphorylation. The IC50 values for inhibitors were determined by a four-parameter sigmoidal curve fit (Sigma plot or Graph pad).
IGFRK and IRK enzyme used for the assay was intracellular kinase domain of human IGF-1R and human IR cloned and expressed as GST fusion proteins using the baculovirus expression system and purified using glutathione—Sepharose column.

T1 sequence (P08069 999-1274 limits assumed): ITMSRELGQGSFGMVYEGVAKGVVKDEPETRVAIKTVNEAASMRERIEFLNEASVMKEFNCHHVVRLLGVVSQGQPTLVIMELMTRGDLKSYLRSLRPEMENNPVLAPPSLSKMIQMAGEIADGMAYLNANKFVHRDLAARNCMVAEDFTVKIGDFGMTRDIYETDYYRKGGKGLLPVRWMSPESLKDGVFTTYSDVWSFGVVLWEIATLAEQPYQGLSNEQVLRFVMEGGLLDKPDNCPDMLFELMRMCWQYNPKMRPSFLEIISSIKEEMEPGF

SMILES	pIC50
NC(=O)c1[nH]c2ccc(Cl)cc2c1S(=O)(=O)N1CCO[C@H](COc2cccc(-c3ccncc3)c2)C1 [Compound 2, (S)-5-chloro-3-((2-((3-(pyridin-4-yl)phenoxy)methyl)morpholino)sulfonyl)-1H-indole-2-carboxamide]	8.07
Cc1ccc(-c2cccc(OC[C@@H]3CN(S(=O)(=O)c4c(C(N)=O)[nH]c5ccc(Cl)cc45)CCO3)c2)cn1 [Compound 4, (S)-5-chloro-3-((2-((3-(6-methylpyridin-3-yl)phenoxy)methyl)morpholino)sulfonyl)-1H-indole-2-carboxamide]	7.93
CN(C)c1ccc(-c2cccc(OC[C@@H]3CN(S(=O)(=O)c4c(C(N)=O)[nH]c5ccc(Cl)cc45)CCO3)c2)cn1 [Compound 5, (S)-5-chloro-3-((2-((3-(6-(dimethylamino)pyridin-3-yl)phenoxy)methyl)morpholino)sulfonyl)-1H-indole-2-carboxamide]	7.52
NC(=O)c1[nH]c2ccc(Cl)cc2c1S(=O)(=O)N1CCO[C@H](COc2cccc(-c3ccc(C(F)(F)F)nc3)c2)C1 [Compound 6, (S)-5-chloro-3-((2-((3-(6-(trifluoromethyl)pyridin-3-yl)phenoxy)methyl)morpholino)sulfonyl)-1H-indole-2-carboxamide]	7.19
NC(=O)c1[nH]c2ccc(Cl)cc2c1S(=O)(=O)N1CCO[C@H](COc2cccc(-c3ccc(F)nc3)c2)C1 [Compound 8, (S)-5-chloro-3-((2-((3-(6-fluoropyridin-3-yl)phenoxy)methyl)morpholino)sulfonyl)-1H-indole-2-carboxamide]	7.81
Cc1ccccc1-c1cccc(OC[C@@H]2CN(S(=O)(=O)c3c(C(N)=O)[nH]c4ccc(Cl)cc34)CCO2)c1 [Compound 10, (S)-5-chloro-3-((2-(((2′-methyl-[1,1′-biphenyl]-3-yl)oxy)methyl)morpholino)sulfonyl)-1H-indole-2-carboxamide]	6.70
NC(=O)c1[nH]c2ccc(Cl)cc2c1S(=O)(=O)N1CCO[C@H](COc2cccc(-c3ccc(F)cc3)c2)C1 [Compound 11, (S)-5-chloro-3-((2-(((4′-fluoro-[1,1′-biphenyl]-3-yl)oxy)methyl)morpholino)sulfonyl)-1H-indole-2-carboxamide]	7.81
NC(=O)c1[nH]c2ccc(Cl)cc2c1S(=O)(=O)N1CCO[C@H](COc2cccc(-c3cccc(F)c3)c2)C1 [Compound 12, (S)-5-chloro-3-((2-(((3′-fluoro-[1,1′-biphenyl]-3-yl)oxy)methyl)morpholino)sulfonyl)-1H-indole-2-carboxamide]	< 7.00
NC(=O)c1[nH]c2ccc(Cl)cc2c1S(=O)(=O)N1CCO[C@H](COc2cccc(-c3ccnc(F)c3)c2)C1 [Compound 13, (S)-5-chloro-3-((2-((3-(2-fluoropyridin-4-yl)phenoxy)methyl)morpholino)sulfonyl)-1H-indole-2-carboxamide]	8.47
Cc1cccc(-c2cccc(OC[C@@H]3CN(S(=O)(=O)c4c(C(N)=O)[nH]c5ccc(Cl)cc45)CCO3)c2)c1 [Compound 14, (S)-5-chloro-3-((2-(((3′-methyl-[1,1′-biphenyl]-3-yl)oxy)methyl)morpholino)sulfonyl)-1H-indole-2-carboxamide]	< 7.00
NC(=O)c1[nH]c2ccc(Cl)cc2c1S(=O)(=O)N1CCO[C@H](COc2cccc(-c3ccccn3)c2)C1 [Compound 15, (S)-5-chloro-3-((2-((3-(pyridin-2-yl)phenoxy)methyl)morpholino)sulfonyl)-1H-indole-2-carboxamide]	8.43
COc1ncc(-c2cccc(OC[C@@H]3CN(S(=O)(=O)c4c(C(N)=O)[nH]c5ccc(Cl)cc45)CCO3)c2)cn1 [Compound 16, (S)-5-chloro-3-((2-((3-(2-methoxypyrimidin-5-yl)phenoxy)methyl)morpholino)sulfonyl)-1H-indole-2-carboxamide]	8.70
COc1cc(-c2cccc(OC[C@@H]3CN(S(=O)(=O)c4c(C(N)=O)[nH]c5ccc(Cl)cc45)CCO3)c2)ccn1 [Compound 18, (S)-5-chloro-3-((2-((3-(2-methoxypyridin-4-yl)phenoxy)methyl)morpholino)sulfonyl)-1H-indole-2-carboxamide]	8.14
Cc1cc(-c2cccc(OC[C@@H]3CN(S(=O)(=O)c4c(C(N)=O)[nH]c5ccc(Cl)cc45)CCO3)c2)ccn1 [Compound 19, (S)-5-chloro-3-((2-((3-(2-methylpyridin-4-yl)phenoxy)methyl)morpholino)sulfonyl)-1H-indole-2-carboxamide]	8.54
Cc1ccc(OC[C@@H]2CN(S(=O)(=O)c3c(C(N)=O)[nH]c4ccc(Cl)cc34)CCO2)cc1-c1ccccc1F [Compound 21, (S)-5-chloro-3-((2-(((2′-fluoro-6-methyl-[1,1′-biphenyl]-3-yl)oxy)methyl)morpholino)sulfonyl)-1H-indole-2-carboxamide]	6.74

More lines, now with the values ahead:

pIC50	SMILES
7.37	Cc1ccc(OC[C@@H]2CN(S(=O)(=O)c3c(C(N)=O)[nH]c4ccc(Cl)cc34)CCO2)cc1-c1cccnc1F [Compound 22, (S)-5-chloro-3-((2-((3-(2-fluoropyridin-3-yl)-4-methylphenoxy)methyl)morpholino)sulfonyl)-1H-indole-2-carboxamide]
6.88	COc1ccccc1-c1cc(OC[C@@H]2CN(S(=O)(=O)c3c(C(N)=O)[nH]c4ccc(Cl)cc34)CCO2)ccc1C [Compound 23, (S)-5-chloro-3-((2-(((2′-methoxy-6-methyl-[1,1′-biphenyl]-3-yl)oxy)methyl)morpholino)sulfonyl)-1H-indole-2-carboxamide]
6.53	Cc1ccccc1-c1cc(OC[C@@H]2CN(S(=O)(=O)c3c(C(N)=O)[nH]c4ccc(Cl)cc34)CCO2)ccc1C [Compound 24, (S)-5-chloro-3-((2-(((2′,6-dimethyl-[1,1′-biphenyl]-3-yl)oxy)methyl)morpholino)sulfonyl)-1H-indole-2-carboxamide]
7.27	COc1ccc(-c2cc(OC[C@@H]3CN(S(=O)(=O)c4c(C(N)=O)[nH]c5ccc(Cl)cc45)CCO3)ccc2C)cn1 [Compound 25, (S)-5-chloro-3-((2-((3-(6-methoxypyridin-3-yl)-4-methylphenoxy)methyl)morpholino)sulfonyl)-1H-indole-2-carboxamide]
7.95	NC(=O)c1[nH]c2ccc(Cl)cc2c1S(=O)(=O)N1CCO[C@H](COc2ccc(F)c(-c3cccnc3)c2)C1 [Compound 26, (S)-5-chloro-3-((2-((4-fluoro-3-(pyridin-3-yl)phenoxy)methyl)morpholino)sulfonyl)-1H-indole-2-carboxamide]
8.33	NC(=O)c1[nH]c2ccc(Cl)cc2c1S(=O)(=O)N1CCO[C@H](COc2ccc(F)c(-c3cncnc3)c2)C1 [Compound 27, (S)-5-chloro-3-((2-((4-fluoro-3-(pyrimidin-5-yl)phenoxy)methyl)morpholino)sulfonyl)-1H-indole-2-carboxamide]
8.16	NC(=O)c1[nH]c2ccc(Cl)cc2c1S(=O)(=O)N1CCO[C@H](COc2ccc(F)c(-c3ccncc3)c2)C1 [Compound 28, (S)-5-chloro-3-((2-((4-fluoro-3-(pyridin-4-yl)phenoxy)methyl)morpholino)sulfonyl)-1H-indole-2-carboxamide]
7.36	COc1ccc(-c2cc(OC[C@@H]3CN(S(=O)(=O)c4c(C(N)=O)[nH]c5ccc(Cl)cc45)CCO3)ccc2F)cn1 [Compound 29, (S)-5-chloro-3-((2-((4-fluoro-3-(6-methoxypyridin-3-yl)phenoxy)methyl)morpholino)sulfonyl)-1H-indole-2-carboxamide]
> 7.00	Cc1cc(-c2cc(OC[C@@H]3CN(S(=O)(=O)c4c(C(N)=O)[nH]c5ccc(Cl)cc45)CCO3)ccc2F)ccn1 [Compound 30, (S)-5-chloro-3-((2-((4-fluoro-3-(2-methylpyridin-4-yl)phenoxy)methyl)morpholino)sulfonyl)-1H-indole-2-carboxamide]
8.06	NC(=O)c1[nH]c2ccc(Cl)cc2c1S(=O)(=O)N1CCO[C@H](COc2ccc(-c3cccnc3)cc2)C1 [Compound 31, (S)-5-chloro-3-((2-((4-(pyridin-3-yl)phenoxy)methyl)morpholino)sulfonyl)-1H-indole-2-carboxamide]
7.52	NC(=O)c1[nH]c2ccc(Cl)cc2c1S(=O)(=O)N1CCO[C@H](COc2ccc(-c3ccccc3)cc2)C1 [Compound 33, (S)-3-((2-(([1,1′-biphenyl]-4-yloxy)methyl)morpholino)sulfonyl)-5-chloro-1H-indole-2-carboxamide]
< 6.00	CN(C)c1ccc(-c2ccc(OC[C@@H]3CN(S(=O)(=O)c4c(C(N)=O)[nH]c5ccc(Cl)cc45)CCO3)cc2)cn1 [Compound 34, (S)-5-chloro-3-((2-((4-(6-(dimethylamino)pyridin-3-yl)phenoxy)methyl)morpholino)sulfonyl)-1H-indole-2-carboxamide]
< 6.00	NC(=O)c1[nH]c2ccc(Cl)cc2c1S(=O)(=O)N1CCO[C@H](COc2ccc(-c3ccc(C(F)(F)F)nc3)cc2)C1 [Compound 35, (S)-5-chloro-3-((2-((4-(6-(trffluoromethyl)pyridin-3-yl)phenoxy)methyl)morpholino)sulfonyl)-1H-indole-2-carboxamide]
